Data on 13 compounds can be found in patent US5763433A, “Pharmaceutical compositions containing 3-beta-hydroxylated 6,7-substituted steroid derivatives, and use thereof” (Conservatoire National des Arts et Metiers, priority 1992, dated 1998).

In assay [1] the target is T1, nuclear binding of tritiated dexamethazone (glucocorticoid receptors) (Mus musculus, UniProt P06537).
T1 construct: The liver, brain, spleen and thymus are excised and the cells of each organ are recovered; from tissue; host or cells: isolated cells of liver, brain, spleen and thymus of metyrapone-treated C57BL/6 mice
T1 sequence (P06537 1-792): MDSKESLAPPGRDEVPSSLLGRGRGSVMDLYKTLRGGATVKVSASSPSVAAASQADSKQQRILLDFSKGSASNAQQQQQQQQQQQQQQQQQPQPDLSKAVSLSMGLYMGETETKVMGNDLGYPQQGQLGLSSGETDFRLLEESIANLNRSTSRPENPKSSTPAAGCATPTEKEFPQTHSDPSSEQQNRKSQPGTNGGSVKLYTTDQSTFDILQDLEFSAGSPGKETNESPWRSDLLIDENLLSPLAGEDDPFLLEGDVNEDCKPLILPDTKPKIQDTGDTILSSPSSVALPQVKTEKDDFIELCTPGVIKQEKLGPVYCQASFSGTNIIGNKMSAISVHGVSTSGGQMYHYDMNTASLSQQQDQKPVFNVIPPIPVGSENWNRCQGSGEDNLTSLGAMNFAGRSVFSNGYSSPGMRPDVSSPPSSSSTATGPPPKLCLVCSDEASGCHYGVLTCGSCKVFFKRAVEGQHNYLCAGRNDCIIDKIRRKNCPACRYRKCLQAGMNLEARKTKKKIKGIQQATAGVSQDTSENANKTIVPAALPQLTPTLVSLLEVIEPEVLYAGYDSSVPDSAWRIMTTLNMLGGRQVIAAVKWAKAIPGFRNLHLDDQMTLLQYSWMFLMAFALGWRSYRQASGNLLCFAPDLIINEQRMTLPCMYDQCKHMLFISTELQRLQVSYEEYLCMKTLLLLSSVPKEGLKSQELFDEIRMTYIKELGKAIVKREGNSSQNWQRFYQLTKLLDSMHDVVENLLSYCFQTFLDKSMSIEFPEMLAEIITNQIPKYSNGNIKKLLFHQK
The assay is described as follows: Displacement of the nuclear binding of tritiated dexamethazone in isolated liver, brain, thymus and spleen cells. Details: species or system C57BL/6 mouse. To be noted: for Displacement coefficient for nuclear binding of tritiated dexamethazone, Liver: liver cells, 100-fold excess of steroid over 2-80 nM 3H-dexamethazone, 60 min; for Displacement coefficient for nuclear binding of tritiated dexamethazone, Liver / Displacement coefficient for nuclear binding of tritiated dexamethazone, Brain / Displacement coefficient for nuclear binding of tritiated dexamethazone, Spleen / Displacement coefficient for nuclear binding of tritiated dexamethazone, Thymus: no competitor = zero, unlabelled dexamethazone = 100, mean of triplicate; for Displacement coefficient for nuclear binding of tritiated dexamethazone, Brain: brain cells; for Displacement coefficient for nuclear binding of tritiated dexamethazone, Spleen: spleen cells; for Displacement coefficient for nuclear binding of tritiated dexamethazone, Thymus: thymus cells. The protocol: The isolated hepatocytes are incubated for 1 hour at room temperature with increasing concentrations (2-80 nM) of ^3 H-dexamethazone (DEX*). […] The hepatocyte nuclei are then isolated and purified and the radioactivity corresponding to the DEX* still bound is measured and expressed in cpm/10 ug of DNA. The area under the curve DEX* corresponds to zero displacement of the radioactivity. The area under the curve DEX*/DEX which corresponds to the displacement of radioactivity by the same molecule is taken arbitrarily as 100. The areas under the curve obtained with the other steroids makes it possible to calculate by interpolation between the areas zero and 100 their displacement coefficients for the nuclear binding of DEX*.
The mice are anesthetized with ether and bled, then perfused intracardially with physiological serum containing collagenase B (0.03 g/100 ml) for 10 minutes. […] The quantities of cells obtained are estimated on the base of the measurement of the DNA contained in the preparations.
The nuclei are recovered and their radioactive content measured as described by the authors cited above.
The area under the curve of tritiated dexamethazone alone is measured and taken as zero. […] The displacement coefficients found for each of the other steroids are calculated by interpolation on this scale, each result being the mean of a triplicate determination.

In the next assay the test system is anti-lysozyme IgG. The assay is described as follows: Immunoenzymatic measurement of anti-lysozyme IgG in serum of mice immunized against lysozyme. Format: in vivo, C57BL/6 mice. To be noted: for Optical densities +/- SD, anti-lysozyme IgG, 1/180 serial dilution: serum 1/180; for Optical densities +/- SD, anti-lysozyme IgG, 1/180 serial dilution / Optical densities +/- SD, anti-lysozyme IgG, 1/540 serial dilution / Optical densities +/- SD, anti-lysozyme IgG, first serial dilution: s.c., mean of 5 mice; for Optical densities +/- SD, anti-lysozyme IgG, 1/180 serial dilution / Optical densities +/- SD, anti-lysozyme IgG, 1/540 serial dilution: doses and timing as E1; for Optical densities +/- SD, anti-lysozyme IgG, 1/540 serial dilution: serum 1/540; for Optical densities +/- SD, anti-lysozyme IgG, first serial dilution: serum dilution not given, PREG 0,5 g/kg, DHEA 1,0 g/kg, ADIOL 125 mg/kg 1 hour before lysozyme, 7-hydroxy-PREG and 7-hydroxy-DHEA 6,25 mg/kg, 7β-hydroxy-DHEA 50,0 mg/kg, 7- and 7β-hydroxy-ADIOL 25,0 mg/kg with lysozyme; for Effect on serum anti-lysozyme IgG (in words): steroid administered s.c. simultaneously with lysozyme; for Optical densities +/- SD, anti-lysozyme IgG, first serial dilution (*): dilution not given, PREG 0,5 g/kg 1 hour before. The protocol: The immunity effector effect was tested by subcutaneous injection concomitantly with that of an antigen and the 7-alpha- or 7-beta-hydroxylated derivative into C57BL/6 mice according to a standard immunization protocol (Methods in Enzymology (1980), vol. 70).
The effect of the compound as cellular immunity effector is measured by the quantity of circulating IgG directed against the antigen 21 days after the injection and after a booster injection 14 days layer.
Thirty five groups of five 6-weeks old C57BL/6 mice are given a subcutaneous injection of 200 ug of hen egg white lysozyme on days one and fourteen of the immunization protocol. Solutions of DHEA (Sigma D-4500) in dimethyl sulfoxide (DMSO) are injected in the same manner at variable times before the first injection of lysozyme. Amounts ranging from 0.25 and 2 g/kg are used. Ten other groups of 5 mice are given a subcutaneous injection of 6.25 to 50 mg/kg of 7-alpha-hydroxy-DHEA or 7-beta-hydroxy-DHEA dissolved in DMSO at the same time as the first lysozyme injection. Two groups receive only DMSO with lysozyme (controls). The blanks correspond to one group of 5 mice and are not given an injection.
Three weeks after the first injections the animals, then aged 9 weeks, are decapitated. The blood of each animal is collected and the presence of anti-lysozyme G immunoglobulins (IgG) is measured in serial dilutions of the sera by an immunoenzymatic titration using goat anti-mouse (Fc) IgG immunoglobulin labelled with peroxidase.
A group of 5 mice is given the subcutaneous injection of 125 mg/kg of 5-androstene-3-beta, 17-beta-diol (ADIOL) one hour prior to the first injection of lysozyme, and two groups of 5 mice are treated with 25 mg/kg of 7-alpha-hydroxy-ADIOL or 7-beta-hydroxy-ADIOL at the time of the first lysozyme injection.
DHEA or PREG or ADIOL is injected subcutaneously 1 hour before the first lysozyme injection. The 7-hydroxylated derivatives are administered simultaneously with the lysozyme injection. The immunoenzymatic measurement of the anti-lysozyme IgGs in the serial dilutions of the sera of each animal makes use of goat anti-mouse (Fc) IgG immunoglobulin, labelled with peroxidase in 96-well plates treated with lysozyme. The mean value of the optical densities measured in each group of 5 mice is calculated as well as the standard deviation (SD).

The mark [2] stands for this setting: * calculated from measurements on higher dilutions of the serum, 7-hydroxy-PREG 6,25 mg/kg with lysozyme.

`C[C@]12CC[C@H](O)C[C@@H]1C[C@H](O)[C@@H]1[C@@H]2CC[C@]2(C)C(=O)CC[C@@H]12` [Steroid 7β-OH-ISOA, 3-beta, 7-beta-dihydroxy-5-alpha-androstane-17-one]: in assay [1], the “Displacement coefficient for nuclear binding of tritiated dexamethazone, Liver” value (“Displacement coefficient … Liver” below) was found to be 68.
For the compound `C[C@]12CC[C@H]3[C@@H]([C@@H](O)C=C4C[C@@H](O)CC[C@@]43C)[C@@H]1CC[C@@H]2O` [7β-hydroxy-ADIOL, androst-5-ene-3-beta,7-beta, 17-beta-triol], in the assay with anti-lysozyme IgG, the “Optical densities +/- SD, anti-lysozyme IgG, 1/180 serial dilution” value is listed as 0,18 ± 0,02; the “Optical densities +/- SD, anti-lysozyme IgG, 1/540 serial dilution” value was 0,12 ± 0,01; the “Optical densities +/- SD, anti-lysozyme IgG, first serial dilution” value is 0,18 ± 0,06.
In the case of `C[C@]12CC[C@H]3[C@@H]([C@H](O)C=C4C[C@@H](O)CC[C@@]43C)[C@@H]1CC[C@@H]2O` [7-hydroxy-ADIOL, androst-5-ene-3-beta, 7-alpha, 17-beta-triol], in the assay on anti-lysozyme IgG, the “Optical densities +/- SD, anti-lysozyme IgG, 1/180 serial dilution” value was 0,14 ± 0,01; the “Optical densities +/- SD, anti-lysozyme IgG, 1/540 serial dilution” value is recorded as 0,11 ± 0,01; the “Optical densities +/- SD, anti-lysozyme IgG, first serial dilution” value is given as 0,15 ± 0,02. The “Displacement of tritiated dexamethazone from nuclear binding / anti-glucocorticoid action (in words)” value in assay [1] (100-fold excess of steroid) is “demonstrates its anti-glucocorticoid effect”. Moreover, in assay [1], the “Displacement coefficient … Liver” value was found to be 88.
In the case of `C[C@]12CC[C@H](O)C[C@@H]1[C@@H](O)C[C@@H]1[C@@H]2CC[C@]2(C)C(=O)CC[C@@H]12` [Steroid 6α-OH-ISOA, 3-beta, 6-alpha-dihydroxy-5-alpha-androstane-17-one], the “Displacement coefficient … Liver” value in assay [1] is 63.
On the same count and under the same terms, then `CC(=O)[C@H]1CC[C@H]2[C@@H]3[C@@H](O)C=C4C[C@@H](O)CC[C@]4(C)[C@H]3CC[C@]12C` [Steroid 7β-OH-PREG, 7-beta-hydroxy-pregnenolone], with 82; and `C[C@]12CC[C@H](O)C[C@@H]1C[C@@H](O)[C@@H]1[C@@H]2CC[C@]2(C)C(=O)CC[C@@H]12` [Steroid 7α-OH-ISOA, 3-beta, 7-alpha-dihydroxy-5-alpha-androstane-17-one], with 102.
On to `C[C@]12CC[C@H](O)CC1=C[C@H](O)[C@@H]1[C@@H]2CC[C@]2(C)C(=O)CC[C@@H]12` [7β-hydroxy-DHEA, 3-beta, 7-beta-dihydroxy-androst-5-en-17-one], for which, in the assay with anti-lysozyme IgG, the “Optical densities +/- SD, anti-lysozyme IgG, 1/180 serial dilution” value is listed as 0,31 ± 0,04; the “Optical densities +/- SD, anti-lysozyme IgG, 1/540 serial dilution” value is 0,13 ± 0,01; the “Optical densities +/- SD, anti-lysozyme IgG, first serial dilution” value is 0,46 ± 0,06. The “Effect on serum anti-lysozyme IgG (in words)” value in the assay with anti-lysozyme IgG (listed as 7-beta-OH-DHEA) is “effect equivalent to that of DHEA injected 1 hour before the antigen, but at doses 20 times lower”. Also, the “Effect on serum anti-lysozyme IgG (in words)” value in the assay on anti-lysozyme IgG (listed as 7-beta-hydroxy-DHEA) was “response identical with that of 1 g/kg of DHEA administered 1 hour prior to that of lysozyme”. Moreover, the “Displacement coefficient for nuclear binding of tritiated dexamethazone, Brain” value (from here on “Displacement coefficient … Brain”) in assay [1] (100-fold excess of steroid) was found to be 65. In addition, the “Displacement coefficient … Liver” value in assay [1] is listed as 80.
`CC(=O)[C@H]1CC[C@H]2[C@@H]3[C@H](O)C=C4C[C@@H](O)CC[C@]4(C)[C@H]3CC[C@]12C` [7-hydroxy-PREG, 7-alpha-hydroxy-PREG]: the “Optical densities +/- SD, anti-lysozyme IgG, first serial dilution (*)” value with anti-lysozyme IgG (setting [2]) is listed as 4,46 ± 0,30. In addition, the “Optical densities +/- SD, anti-lysozyme IgG, 1/180 serial dilution (*)” value with anti-lysozyme IgG (* calculated from measurements on higher dilutions of the serum, 1/180, 7-hydroxy-PREG 6,25 mg/kg with lysozyme) is 2,20 ± 0,14. In addition, the “Optical densities +/- SD, anti-lysozyme IgG, 1/540 serial dilution” value in the assay with anti-lysozyme IgG is reported as 0,77 ± 0,05. In assay [1] (100-fold excess of steroid), the “Displacement coefficient … Brain” value is listed as 38; the “Displacement coefficient for nuclear binding of tritiated dexamethazone, Spleen” value is given as 81; the “Displacement coefficient for nuclear binding of tritiated dexamethazone, Thymus” value amounted to 94. For the same compound, the “Displacement coefficient … Liver” value in assay [1] is on record as 34.
Take `C[C@]12CC[C@H](O)C[C@@H]1C[C@@H](O)[C@@H]1[C@@H]2CC[C@]2(C)[C@@H](O)CC[C@@H]12` [Steroid 7α-OH-ADIOL, 5-alpha-androstane-3-beta, 7-alpha, 17-beta-triol]: in assay [1] (100-fold excess of steroid), the “Displacement coefficient … Brain” value is reported as 96; the “Displacement coefficient for nuclear binding of tritiated dexamethazone, Spleen” value is given as 125; the “Displacement coefficient for nuclear binding of tritiated dexamethazone, Thymus” value worked out at 96. Also, the “Displacement coefficient … Liver” value in assay [1] is reported as 83.
As to `CC(=O)[C@H]1CC[C@H]2[C@@H]3C(=O)C=C4C[C@@H](O)CC[C@]4(C)[C@H]3CC[C@]12C` [Steroid 7-oxo-PREG, 3-beta-hydroxy-5-pregnen-7,20-dione], the “Displacement coefficient … Liver” value in assay [1] is on record as 35.
As to `C[C@]12CC[C@H](O)C[C@@H]1CC(=O)[C@@H]1[C@@H]2CC[C@]2(C)C(=O)CC[C@@H]12` [Steroid 7-oxo-ISOA, 3-beta-hydroxy-5-alpha-androstane-7,17-dione], the “Displacement coefficient … Liver” value in assay [1] is 84.
As to `CC(=O)[C@H]1CC[C@H]2[C@@H]3CC=C4C[C@@H](O)CC[C@]4(C)[C@H]3CC[C@]12C` [PREG, 3-beta-hydroxy-5-pregnen-20-one, reference compound], the “Optical densities +/- SD, anti-lysozyme IgG, first serial dilution (*)” value in the assay with anti-lysozyme IgG (setting [2]) is on record as 4,67 ± 1,21. For the same compound, in the assay on anti-lysozyme IgG, the “Optical densities +/- SD, anti-lysozyme IgG, 1/180 serial dilution” value was 1,83 ± 0,48 and the “Optical densities +/- SD, anti-lysozyme IgG, 1/540 serial dilution” value is 0,56 ± 0,15. In addition, in the assay on anti-lysozyme IgG (steroid administered s.c. at least one hour prior to the injection of lysozyme), the “Effect on serum concentrations of anti-lysozyme IgG (in words)” value is recorded as “increase the serum concentrations of anti-lysozyme IgG”.
With `C[C@]12CC[C@H](O)CC1=CC(=O)[C@@H]1[C@@H]2CC[C@]2(C)C(=O)CC[C@@H]12` [Steroid 7-oxo-DHEA, 3-beta-hydroxy-5-androsten-7,17-dione], in assay [1], the “Displacement coefficient … Liver” value worked out at 28.
